What was measured:
[1] = target: T1, peripheral type CCK receptors in rat pancreas (Rattus norvegicus, UniProt P30551); assay: Binding to peripheral type CCK receptors in rat pancreas (3H-L-364,718); details: for IC50: rat pancreas
T1 construct: Pancreas was obtained from male Sprague-Dawley rats; from tissue; host or cells: pancreas membranes of male Sprague-Dawley rats
T1 sequence (P30551 1-444): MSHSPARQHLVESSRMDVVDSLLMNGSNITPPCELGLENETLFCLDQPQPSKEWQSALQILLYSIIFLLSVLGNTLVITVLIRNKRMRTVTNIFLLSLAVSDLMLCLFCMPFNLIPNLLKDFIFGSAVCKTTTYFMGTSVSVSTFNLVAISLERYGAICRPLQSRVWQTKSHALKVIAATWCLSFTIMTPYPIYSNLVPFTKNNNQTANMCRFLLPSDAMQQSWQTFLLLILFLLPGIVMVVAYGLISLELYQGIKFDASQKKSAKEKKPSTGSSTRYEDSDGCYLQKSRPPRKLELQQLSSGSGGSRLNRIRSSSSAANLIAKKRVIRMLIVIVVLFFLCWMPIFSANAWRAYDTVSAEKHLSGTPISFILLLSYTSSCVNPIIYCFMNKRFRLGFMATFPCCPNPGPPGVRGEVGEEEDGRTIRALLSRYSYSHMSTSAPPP
Description: Binding to peripheral type CCK receptors in rat pancreas was done according to the method of Chang et al. (Mol. Pharmacol. 30: 212-217, 1986) using ^3 H-L364, 718. Pancreas was obtained from male Sprague-Dawley rats, 150-200 g, after decapitation, and dissected free from adipose and connective tissue. The tissue was homogenized in 30 volumes of 50 mM Tris buffer, pH 7.4 and centrifuged at 40,000 g for 10 min. The tissue pellet was washed by resuspension and centrifugation as described above. The final pellet was suspended in 500 volumes of assay buffer (50 mM Tris buffer, pH 7.4, 5 mM MgCl2, 0.14 mg/ml bacitracin, and 5 mM dithiothreitol) to give a protein concentration of 30-60 μg/200 μl . Reagent volumes for the assay were the same as those used for CCK binding to brain membranes. Tritium labeled L-364,718 (Dupont NEN, NET-971) was used as the ligand at a concentration of 0.4-0.6 nM. The samples were incubated 1 hour at room temperature and then filtered as described for the CCK-brain receptor. Scintillation cocktail was added to the filters which were counted for radioactivity using a Micromedic Taurus automatic liquid scintillation counter.
Compound samples were prepared and IC-50 values were determined as described for the CCK-brain experiments. Non-specific binding was that amount left bound to the filters after adding 100 nM L-364,718.

brain CCK receptor = target: T2, brain CCK receptor (Mus musculus, UniProt P56481); assay: CCK receptor binding, mouse brain membranes (125I-CCK-8 sulfate); details: for inhibition at 1 µM / inhibition at 10 µM: read-out: Brain Percent Inhibition; for IC50: mouse brain membranes, read-out: Brain IC50
T2 construct: from tissue; host or cells: forebrain membranes of male CF-1 mice
T2 sequence (P56481 1-453): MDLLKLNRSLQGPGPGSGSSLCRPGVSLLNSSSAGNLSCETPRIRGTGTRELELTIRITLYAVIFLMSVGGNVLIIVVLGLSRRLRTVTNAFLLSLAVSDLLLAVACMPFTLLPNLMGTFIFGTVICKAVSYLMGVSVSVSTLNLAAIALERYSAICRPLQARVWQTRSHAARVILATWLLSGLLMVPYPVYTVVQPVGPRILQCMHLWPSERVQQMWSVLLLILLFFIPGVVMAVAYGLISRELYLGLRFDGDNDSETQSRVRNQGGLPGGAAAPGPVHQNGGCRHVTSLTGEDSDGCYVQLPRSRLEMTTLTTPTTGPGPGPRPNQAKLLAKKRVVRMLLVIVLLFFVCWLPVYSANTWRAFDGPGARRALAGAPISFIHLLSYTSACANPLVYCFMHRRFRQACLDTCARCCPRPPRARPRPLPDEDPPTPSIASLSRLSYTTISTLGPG
Description: Brain CCK receptor binding was performed using mouse brain membranes according to the method of Chang and Lotti (Proc. Natl. Acad. Sci. 83: 4923-4926, 1986). Male CF-1 mice, 23-25 g were sacrificed by cervical dislocation, the forebrain removed and placed in ice cold 50 mM Tris buffer, pH 7.4. The tissue was homogenized in 100 volumes of the Tris buffer with a Brinkman Polytron or Tekmar Tissumizer and then centrifuged at 40,000 g for 10 min. Pellets were resuspended in Tris buffer, centrifuged as above and then resuspended in 100 volumes of assay buffer, pH 6.5 (20 mM N-2-hydroxyethyl-piperazine-N'-2-ethane sulfonic acid (HEPES), 1 mM ethylene glycol his (2-aminoethyl ether-N,N,N',N'-tetraacetic acid) (EGTA), 5 mM MgCl2, 130 mM NaCl, and 0.25 mg/ml bacitracin). The binding assay consisted of 50 μL of compound (or buffer for total binding), 50 μL of ^125 I-CCK-8 sulfate (20 pM) (Amersham IM- 159), 200 μL of assay buffer and 200 μL of homogenate (80-120 μg protein). The samples were incubated at room temperature (25°) for 2 hours, and they were then filtered through GF/B glass fiber filters (soaked in wash buffer for 2 hours before use) using a 48 well Brandel cell harvester designed for receptor binding. The filters were washed twice with 3 ml of 50 mM Tris buffer, pH 7.4, containing 0.01% BSA and then counted for radioactivity in plastic tubes with a Micromedic 10/600 automatic gamma counter.
Compounds were dissolved in dimethyl sulfoxide (DMSO) at a concentration of 10 mM and then further diluted with assay buffer. The concentration of DMSO in the incubation was 0.1% or less and had no effect on the assay at that level. IC-50 values of displacement curves were determined using 7 concentrations of compound and were calculated using the ALLFIT computer program of DeLean, Munson and Rodbard (Am. J. Physiol. 235: E97-E102, 1978). Non-specific binding was determined as the displacement of the radioligand by 100 nM CCK-8 sulfate.

[2] = read-out: Pancreas Percent Inhibition

inhibition at 10 µM [1, 2] | IC50 (brain CCK receptor) | SMILES | also measured
69% | – | O=C1NN(C(=O)Nc2ccc(-c3ccccc3)cc2)[C@@H](c2ccccc2)[C@@H]1c1ccccc1 (relative stereo) [Example 32] | inhibition at 1 µM (brain CCK receptor): 42%
20% | 340 nM | COc1ccc(NC(=O)N2NC(=O)[C@@H](c3ccccc3)[C@@H]2c2ccccc2)cc1 (relative stereo) [Example 33] | –
48% | 390 nM | CC(C)Oc1ccc(NC(=O)N2NC(=O)[C@@H](c3ccccc3)[C@@H]2c2ccccc2)cc1 (relative stereo) [Example 35] | –
33% | 450 nM | O=C1NN(C(=O)Nc2ccc(OCCc3ccccc3)cc2)[C@@H](c2ccccc2)[C@@H]1c1ccccc1 (relative stereo) [Example 36] | –
52% | 330 nM | O=C1NN(C(=O)Nc2cccc(C(F)(F)F)c2)[C@@H](c2ccccc2)[C@@H]1c1ccccc1 (relative stereo) [Example 39] | –
37% | 780 nM | COc1cccc(NC(=O)N2NC(=O)[C@H](c3ccccc3)[C@H]2c2ccccc2)c1 (relative stereo) [Example 42] | –
– | 22 nM | O=C1NN(C(=O)Nc2ccc(Br)c(C(F)(F)F)c2)[C@H](c2ccccc2)[C@H]1c1ccccc1 (relative stereo) [Example 45] | IC50 [1]: 160 nM
45% | 1000 nM | O=C1NN(C(=O)Nc2cc(C(F)(F)F)ccc2Cl)[C@H](c2ccccc2)[C@H]1c1ccccc1 (relative stereo) [Example 57] | –
75% | – | O=C1NN(C(=O)Nc2cc(Cl)cc(Cl)c2)[C@H](c2ccccc2)[C@H]1c1ccccc1 (relative stereo) [Example 59] | inhibition at 1 µM (brain CCK receptor): 44%
37% | – | O=C1NN(C(=S)Nc2ccccc2)[C@H](c2ccccc2)[C@H]1c1ccccc1 (relative stereo) [Example 60] | inhibition at 10 µM (brain CCK receptor): 34%
– | 5300 nM | O=C1NN(C(=S)Nc2cccc(Cl)c2Cl)[C@H](c2ccccc2)[C@H]1c1ccccc1 (relative stereo) [Example 64] | inhibition at 1 µM ([1]; at 1 μM, read-out: Pancreas Percent Inhibition): 34%
23% | – | CN1C(=O)[C@H](c2ccccc2)[C@@H](c2ccccc2)N1C(=O)Nc1cccc(Cl)c1Cl (relative stereo) [Example 66] | inhibition at 10 µM (brain CCK receptor): 40%

Second part, the compound before the results:

SMILES | inhibition at 10 µM [1, 2] | IC50 (brain CCK receptor) | also measured
CCOc1ccc(NC(=O)N2NC(=O)[C@@H](c3ccccc3)[C@@H]2c2ccccc2)cc1 (relative stereo) [Example 34] | 12% | 1500 nM | –
O=C1NN(C(=O)Nc2ccc(Oc3ccccc3)cc2)[C@@H](c2ccccc2)[C@@H]1c1ccccc1 (relative stereo) [Example 37] | 75% | – | inhibition at 1 µM (brain CCK receptor): 82%
O=C1NN(C(=O)Nc2cccc([N+](=O)[O-])c2)[C@H](c2ccccc2)[C@H]1c1ccccc1 (relative stereo) [Example 40] | 38% | 750 nM | –
Cc1cccc(NC(=O)N2NC(=O)[C@H](c3ccccc3)[C@H]2c2ccccc2)c1 (relative stereo) [Example 41] | 21% | – | inhibition at 10 µM (brain CCK receptor): 57%
CC(C)Oc1cccc(NC(=O)N2NC(=O)[C@H](c3ccccc3)[C@H]2c2ccccc2)c1 (relative stereo) [Example 43] | 24% | 230 nM | –
O=C1NN(C(=O)Nc2cccc(OCc3ccccc3)c2)[C@H](c2ccccc2)[C@H]1c1ccccc1 (relative stereo) [Example 44] | 67% | 260 nM | –
O=C1NN(C(=O)Nc2ccc(F)c(Cl)c2)[C@H](c2ccccc2)[C@H]1c1ccccc1 (relative stereo) [Example 47] | 51% | 390 nM | –
O=C1NN(C(=O)Nc2ccc(Cl)c([N+](=O)[O-])c2)[C@H](c2ccccc2)[C@H]1c1ccccc1 (relative stereo) [Example 48] | 98% | 80 nM | –
COc1ccc(NC(=O)N2NC(=O)[C@H](c3ccccc3)[C@H]2c2ccccc2)cc1OC (relative stereo) [Example 51] | 25% | – | inhibition at 1 µM (brain CCK receptor): 18%
O=C1NN(C(=O)Nc2ccc3c(c2)OCO3)[C@H](c2ccccc2)[C@H]1c1ccccc1 (relative stereo) [Example 52] | 21% | – | inhibition at 1 µM (brain CCK receptor): 60%
O=C1NN(C(=O)Nc2ccccc2C(F)(F)F)[C@H](c2ccccc2)[C@H]1c1ccccc1 (relative stereo) [Example 53] | 17% | 1200 nM | –
O=C1NN(C(=O)Nc2cccc(Cl)c2Cl)[C@H](c2ccccc2)[C@H]1c1ccccc1 (relative stereo) [Example 54] | 53% | 1150 nM | –
O=C1NN(C(=O)Nc2ccc(Cl)cc2Cl)[C@H](c2ccccc2)[C@H]1c1ccccc1 (relative stereo) [Example 55] | 47% | 600 nM | –
O=C1NN(C(=O)Nc2ccc(F)cc2F)[C@H](c2ccccc2)[C@H]1c1ccccc1 (relative stereo) [Example 56] | 15% | – | inhibition at 1 µM (brain CCK receptor): 25%
O=C1NN(C(=O)Nc2cc(C(F)(F)F)cc(C(F)(F)F)c2)[C@H](c2ccccc2)[C@H]1c1ccccc1 (relative stereo) [Example 58] | 85% | – | inhibition at 1 µM (brain CCK receptor): 10%
O=C1NN(C(=S)Nc2cccc(C(F)(F)F)c2)[C@H](c2ccccc2)[C@H]1c1ccccc1 (relative stereo) [Example 61] | 78% | – | inhibition at 10 µM (brain CCK receptor): 56%
O=C1NN(C(=S)Nc2ccc(C(F)(F)F)cc2)[C@H](c2ccccc2)[C@H]1c1ccccc1 (relative stereo) [Example 62] | 37% | 2200 nM | –
O=C1NN(C(=S)Nc2ccc(Cl)c(C(F)(F)F)c2)[C@H](c2ccccc2)[C@H]1c1ccccc1 (relative stereo) [Example 63] | – | 510 nM | IC50 [1]: 75 nM
O=C1NN(C(=S)Nc2c(F)c(F)c(F)c(F)c2F)[C@H](c2ccccc2)[C@H]1c1ccccc1 (relative stereo) [Example 65] | 37% | – | inhibition at 10 µM (brain CCK receptor): 50%
O=C1NN(C(=O)c2ccc(C(F)(F)F)cc2)[C@H](c2ccccc2)[C@H]1c1ccccc1 (relative stereo) [Example 74] | 15% | – | inhibition at 10 µM (brain CCK receptor): 23%
